Patent publication EP0617288B1, “Long emission wavelength chemiluminescent compounds and their use in test assays” (Novartis AG, priority 1993, dated 1994)

How the values were obtained:
[1] = Light emission spectra by Fast Spectral Scanning System (FSSS); assay type: physicochemical; settings: for emission spectrum peak: figure legends FIGS. 2A-2E, 3A-3J; for Emission Max: in 0.5 ml acetonitrile, Flashing Reagent #1 and #2, maximum could vary by 0-4 nm between determinations; for Range: spectral region with signal intensity of above 5% of peak height
Description: The light emission spectra of LBAC's and the reference acridinium esters were determined by a Fast Spectral Scanning System (FSSS) of Photo Research (a division of Kollmorgen Corp) of Burbank, CA, U.S.A. The experiment was carried out in a dark room. Each sample was dissolved in HPLC grade acetonitrile at the concentration of 1 mg/ml or higher and diluted with the same solvent to obtain the sample solution in the concentration specified. A typical determination utilized 10 to 100 ug of each compound, with the exception of the angular benz[a]acridinium ester (2 mg), separately or mixed together in 0.5 ml acetonitrile contained in 13 x 100 mm borosilicate test tube. The tube was placed on a tube rack raised to a proper height. The FSSS optical head was placed in front of the tube at close distance and with its lens focused on the liquid in the tube. The sample solution was first treated with 0.35 ml of the Flashing Reagent #1 (Ciba Corning Diagnostics) containing 0.1 N HNO3 and 0.1% H2O2. […] The light which was generated instantaneously following the addition of the Reagent #2 was recorded by FSSS for 4 seconds except for 2-MeO-LEAE-Imidate which was recorded for 30 seconds starting from split second before the Reagent #2 was added.
Recorded emission spectra are shown in FIGS. 2A-2E, 3A-3J, and 4A-4D. FIGS. 2A-2E and 3A-3J show individual emission spectra of chemiluminescent compounds including an acridinium ring system and compounds including a benzacridinium ring system. […] The major portions of the original constituting spectra which remained unchanged were indeed non-overlapping. These important physical characteristics fulfill the prerequisite for two or more subclasses of chemiluminescent compounds to be utilized in test assays for detecting and/or quantitating at least two substances in a test sample, and particularly to multianalyte clinical diagnostic assays.

[2] = Kinetic study on light emission (time course up to 10 seconds); assay type: physicochemical; settings: normalized to 10 seconds
Description: A time course study over a period of up to 10 seconds was conducted to determine these percentages, by flashing the compounds and normalizing all the signals collected for different lengths of time to that of 10 seconds.

| Compound | emission spectrum peak [1] | Emission Max [1] | Range [1] | Percent signal released over different lengths of time ([2]; 0.5 s) [%] | Percent signal released over different lengths of time ([2]; 1.0 s) [%] | Percent signal released over different lengths of time ([2]; 2.0 s) [%] | Percent signal released over different lengths of time ([2]; 4.0 s) [%] | Percent signal released over different lengths of time ([2]; 6.0 s) [%] | Percent signal released over different lengths of time ([2]; 10.0 s) [%] | difference of the emission maxima ([1]; versus acridinium esters) |
| --- | --- | --- | --- | --- | --- | --- | --- | --- | --- | --- |
| Cc1cc(C(=O)OCc2ccccc2)cc(C)c1OC(=O)c1c2ccccc2[n+](CCCS(=O)(=O)[O-])c2cc3ccccc3cc12 [NSP-LEAE-Bz, (4-Benzyloxycarbonyl-2,6-dimethyl)phenyl 5-(3-Sulfopropyl)-benz[b]acridinium-12-carboxylate] | ≈ 516 nm | 516 nm | 482-655 nm | 14 | 72 | 91 | 96 | 95 | 100 |  |
| CC(C)c1cc(C(=O)OCc2ccccc2)cc(C(C)C)c1OC(=O)c1c2ccccc2[n+](C)c2cc3ccccc3cc12 [DIP-LEAE-Bz, (4-Benzyloxycarbonyl-2,6-diisopropyl)phenyl 5-Methyl-benz[b]acridinium-12-carboxylate Fluorosulfonate] | ≈ 520 nm | 520 nm | 485-670 nm | 4 | 26 | 47 | 67 | 80 | 100 |  |
| COc1ccc2c(c1)c(C(=O)Oc1c(C)cc(C(=O)ON3C(=O)CCC3=O)cc1C)c1cc3ccccc3cc1[n+]2CCS(=O)(=O)[O-] [2-MeO-NSE-LEAE-NHS, (2,6-Dimethyl-4-N-succinimidyloxycarbonyl)phenyl 2-Methoxy-5-(2-sulfoethyl)-benz[b]acridinium-12-carboxylate] | ≈ 546 nm | 546 nm | 500-700 nm | 22 | 58 | 79 | 90 | 96 | 100 |  |
| COc1ccc2c(c1)c(C(=O)Oc1c(C)cc(C(=O)OCc3ccccc3)cc1C)c1cc3ccccc3cc1[n+]2C [2-MeO-LEAE-Bz, (4-Benzyloxycarbonyl-2,6-dimethyl)phenyl 2-Methoxy-5-methyl-benz[b]acridinium-12-carboxylate Fluorosulfonate] | ≈ 550 nm | 550 nm | 510-700 nm | 16 | 42 | 65 | 83 | 92 | 100 |  |
| COc1ccc(N(C(=O)c2c3ccccc3[n+](C)c3cc4ccccc4cc23)S(=O)(=O)c2cccc(C(=O)OCc3ccccc3)c2)cc1 [LEAC-Bz, N-(4-Methoxyphenyl)-N-[3-(benzyloxycarbonyl)phenylsulfonyl] 5-Methyl-benz[b]acridinium-12-carboxamide Fluorosulfonate] | ≈ 520 nm | 520 nm | 485-670 nm | 73 | 82 | 93 | 98 | 102 | 100 |  |
| Cc1cc(C(=O)ON2C(=O)CCC2=O)cc(C)c1OC(=O)c1c2cc(OCC[N+](C)(C)C)ccc2[n+](C)c2cc3ccccc3cc12 [2-QAE-LEAE-NHS, (2,6-Dimethyl-4-succinimidyloxycarbonyl)phenyl 5-Methyl-2-(trimethylammonium)ethoxy-benz[b]acridinium-12-carboxylate Difluorosulfonate] | ≈ 550 nm | 550 nm | 510-700 nm | 9 | 37 | 59 | 76 | 88 | 100 |  |
| (4-Benzyloxycarbonyl-2,6-diisopropyl)phenyl 10-Methyl-acridinium-9-carboxylate Fluorosulfonate [DIPAE-Bz, reference compound] | ≈ 428 nm | 426 nm | 405-520 nm | 14 | 64 | 89 | 97 | 98 | 100 |  |
| [2,6-Dimethyl-4-(2-methoxyiminoethyl)]phenyl 2-Methoxy-5-methyl-benz[b]acridinium-12-carboxylate Dichloride [2-MeO-LEAE-Imidate] | ≈ 550 nm | 550 nm | 500-710 nm | 6 | 23 | 40 | 59 | 76 | 100 |  |
| CCOc1ccc2c(C(=O)Oc3c(C)cc(C(=O)OCc4ccccc4)cc3C)c3cc4ccccc4cc3[n+](C)c2c1 [3-EtO-LEAE-Bz, (4-Benzyloxycarbonyl-2,6-dimethyl)phenyl 3-Ethoxy-5-methyl-benz[b]acridinium-12-carboxylate Fluorosulfonate] | ≈ 508 nm | 508 nm | 470-660 nm | 45 | 78 | 85 | 93 | 95 | 100 |  |
| Cc1cc(C(=O)OCc2ccccc2)cc(C)c1OC(=O)c1c2ccccc2[n+](C)c2ccc3ccccc3c12 [ABAC, (4-Benzyloxycarbonyl-2,6-dimethyl)phenyl 5-methyl-benz[a]acridinium-12-carboxylate methosulfate, reference compound] | ≈ 440 nm | 436-440 nm | 410-530 nm | 3 | 20 | 52 | 73 | 89 | 100 | 8-14 nm |
| COc1ccc2c(C(=O)Oc3c(C)cc(C(=O)OCc4ccccc4)cc3C)c3ccccc3[n+](C)c2c1 [3-MeO-DMAE-Bz, (4-Benzyloxycarbonyl-2,6-dimethyl)phenyl 3-Methoxy-10-methyl-acridinium-9-carboxylate Fluorosulfonate, reference compound] | ≈ 422 nm | 422 nm | 395-520 nm | 26 | 49 | 57 | 70 | 80 | 100 |  |
| Cc1cc(C(=O)OCc2ccccc2)cc(C)c1OC(=O)c1c2ccccc2[n+](C)c2cc3ccccc3cc12 [LEAE-Bz, (4-Benzyloxycarbonyl-2,6-dimethyl)phenyl 5-Methyl-benz[b]acridinium-12-carboxylate Fluorosulfonate] | ≈ 520 nm | 520-524 nm | 490-670 nm | 27 | 71 | 88 | 97 | 98 | 100 |  |
